Results on five molecules are retold here after PMC9227918 (Toxins, 2022).

Holding throughout (assay type): in vitro ADME
The nature of data set [1]: Hepatic phase I metabolism, incubation with horse liver microsomes and NADPH-regenerating system. The conditions noted are these: for identified pI metabolites: horse liver microsomes 5 mg/mL, 0.04 mg/mL PSD, 90 min, 37 °C, HPLC-Orbitrap-HRMS; for extent of pI transformation / metabolite formation: horse microsomes compared with human microsomes.
Data set [2] in a line: Hepatic phase I metabolism, incubation with human liver microsomes and NADPH-regenerating system. Particulars: for main pI metabolite: human liver microsomes 5 mg/mL, 0.04 mg/mL PSD, 90 min, 37 °C, HPLC-DAD-Orbitrap-HRMS. In general terms: Liver microsomes are vesicles of endoplasmic reticulum, rich in cytochrome P450 enzymes.
A short description of data set [3]: Hepatic phase II metabolism (glucuronidation), horse liver microsomes with UDPGA. Particulars: UDPGA 0.3 mM, 0.02 mg/mL PSD, 90 min, HPLC-Orbitrap-HRMS.
The nature of data set [4]: Hepatic phase II metabolism (glucuronidation), human liver microsomes with UDPGA.
Data set [5] is described as follows: Hepatic phase II metabolism (sulfation), horse liver cytosol with PAPS. The conditions noted are these: horse cytosol compared with human cytosol (Figure 7b).
The nature of data set [6]: Hepatic phase II metabolism (sulfation), human liver cytosol with PAPS. The conditions noted are these: HPLC-QTOF-HRMS.

The structures appear in SMILES notation.

As for `C[C@@H]1CC[C@H]2C(C)(C)[C@H](O)CC[C@]2(C)[C@@]12Cc1c(O)cc(C=O)c(C=O)c1O2` [STDIAL, stachybotrydial], in data set [1], the “identified pI metabolites” value is “all but the desaturated metabolites were formed” and the “extent of pI transformation / metabolite formation” value was “comparable to human microsomes”. Also, in data set [2], the “main pI metabolite” value is “STDIAL [+O–H4]”.

As to `CC(=O)O[C@@H]1[C@H](OC(C)=O)C[C@@]2(C)[C@@H](CC[C@@H](C)[C@]23Cc2c(OC4O[C@H](C(=O)O)[C@@H](O)[C@H](O)[C@H]4O)cc(CO)c(C=O)c2O3)C1(C)C` (stereo partly shown) [STBON D +GlcA], the “glucuronide (+GlcA) formation” value in data set [3] was “identified”; in data set [4] (human microsomes, UDPGA 0.3 mM, 0.02 mg/mL PSD, 90 min, HPLC-Orbitrap-HRMS) it was “identified”.

As for `C[C@@H]1CC[C@H]2C(C)(C)[C@H](O)CC[C@]2(C)[C@@]12Cc1c(O)cc3c(c1O2)CNC3=O` [STLAC, stachybotrylactam], in data set [1], the “identified pI metabolites” value is listed as “all but the desaturated metabolites were formed” and the “extent of pI transformation / metabolite formation” value is on record as “comparable to human microsomes”. For the same molecule, in data set [2], the “main pI metabolite” value was “oxidized metabolites ([+O])”.

For `C[C@@H]1CC[C@H]2C(C)(C)[C@H](O)CC[C@]2(C)[C@@]12Cc1c(O)cc(CO)c(C=O)c1O2` [L-671, L-671,667], the “identified pI metabolites” value in data set [1] is “L-671 [+O2–H2] could not be detected”. For the same molecule, in data set [2] (HPLC-Orbitrap-HRMS experiments, compared among the four PSDs), the “variation in potential pI metabolites” value is on record as “largest variation in potential pI metabolites”. The “conversion in sulfation experiments” value in data set [5] is listed as “Opposite observations”. Besides, in data set [6], the “abundance of sulfate signals among the PSDs” value is on record as “most abundant sulfate signals” and the “number of signals in the XIC of the sulfate (isomers)” value is reported as “two signals”.

As to `CC(=O)O[C@@H]1[C@H](OC(C)=O)C[C@@]2(C)[C@@H](CC[C@@H](C)[C@]23Cc2c(O)cc(CO)c(C=O)c2O3)C1(C)C` [STBON D, stachybonoid D], the “identified pI metabolites” value in data set [1] was “only the metabolites STBON D [+O–H2] and STBON D [+O] were identified”. Further, the “conversion in glucuronidation experiments” value in data set [4] (human microsomes compared with horse microsomes, 90 min (Figure 7a)) is “higher signals for STBON D +GlcA and lower signals of the respective parental compound”. Further, in data set [2], the “main pI metabolite” value was “oxidized metabolites ([+O])”.
